Some results are limits rather than exact numbers.

`CCOC(=O)C(=O)CC(=O)c1ccc2c(c1)c(=O)c(CCC(=O)O)cn2Cc1ccc(F)cc1`: the melting point fell in the range of 177 to 180 °C. `O=C(O)CCc1cn(Cc2ccc(F)cc2)c2ccc(C(=O)CC(=O)C(=O)O)cc2c1=O`: the melting point fell in the range of 184 to 187 °C. With `CCOC(=O)C(=O)CC(=O)c1cn(Cc2ccc(F)cc2)c2c(F)cccc2c1=O` the figure was 179 to 180 °C; with `O=C(O)C(=O)CC(=O)c1cn(Cc2ccc(F)cc2)c2c(F)cccc2c1=O`, 180 to 181 °C. Regarding `CCOC(=O)C(=O)CC(=O)c1cn(Cc2ccc(F)cc2)c2c(Cl)cccc2c1=O`, the melting point fell in the range of 164 to 165 °C. With `O=C(O)C(=O)CC(=O)c1cn(Cc2ccc(F)cc2)c2c(Cl)cccc2c1=O` the figure was 175 to 177 °C.

For the compound `CCOC(=O)C(=O)CC(=O)c1cn(Cc2cccc(OC)c2)c2ccccc2c1=O`, the melting point lay in the range of 177 to 179 °C. On to `COc1cccc(Cn2cc(C(=O)CC(=O)C(=O)O)c(=O)c3ccccc32)c1`, for which the melting point fell in the range of 179 to 181 °C. With `CCOC(=O)C(=O)CC(=O)c1cn(Cc2ccccc2OC)c2ccccc2c1=O` the figure was 154 to 156 °C. In turn, `COc1ccccc1Cn1cc(C(=O)CC(=O)C(=O)O)c(=O)c2ccccc21` yielded a melting point of 173 to 175 °C. On to `CCOC(=O)C(=O)CC(=O)c1cn(Cc2ccc(O)cc2)c2ccccc2c1=O`, for which the melting point was in the range of 179 to 181 °C. `O=C(O)C(=O)CC(=O)c1cn(Cc2ccc(O)cc2)c2ccccc2c1=O` returned a melting point of 206 to 208 °C. As to `CCOC(=O)C(=O)CC(=O)c1cn(Cc2ccc(F)cc2)c2cc(Cl)c(Cl)cc2c1=O`, the melting point lay within 144 to 145 °C. On to `O=C(O)C(=O)CC(=O)c1cn(Cc2ccc(F)cc2)c2cc(Cl)c(Cl)cc2c1=O`, for which the melting point was in the range of 175 to 177 °C. The compound `O=C(O)C(=O)CC(=O)c1cn(Cc2ccc(F)cc2)c2cc(N3CCCC3)ccc2c1=O` displayed a melting point of 197 to 199 °C. As for `CCOC(=O)C(=O)CC(=O)c1cn(Cc2ccccc2F)c2cc(Cl)ccc2c1=O`, the figure is 173 to 175 °C. With `O=C(O)C(=O)CC(=O)c1cn(Cc2ccccc2F)c2cc(Cl)ccc2c1=O`, the melting point was in the range of 187 to 189 °C.

With `CCOC(=O)C(=O)CC(=O)c1c[nH]c2ccccc2c1=O` [RDS1675, 4-(1,4-dihydro-4-oxoquinolin-3-yl)-2,4-dioxobutanoic acid ethyl ester], the melting point is 235 to 237 °C.

For the compound `O=C(O)C(=O)CC(=O)c1c[nH]c2ccccc2c1=O` [RDS1680, 4-(1,4-dihydro-4-oxoquinolin-3-yl)-2,4-dioxobutanoic acid], the melting point is above 290 °C. The compound `CCOC(=O)C(=O)CC(=O)c1cn(Cc2ccc3ccccc3c2)c2ccccc2c1=O` [RDS1974, 4-[α-(2-Naphthyl)methyl-1,4-dihydro-4-oxoquinolin-3-yl]-2,4-dioxobutanoic acid ethyl ester] showed a melting point of 153 to 154 °C. As for `O=C(O)C(=O)CC(=O)c1cn(Cc2ccc3ccccc3c2)c2ccccc2c1=O` [RDS1975, 4-[1-(2-Naphthyl)methyl-1,4-dihydro-4-oxoquinolin-3-yl]-2,4-dioxobutanoic acid], the figure is 212 to 213 °C; as for `CCOC(=O)C(=O)CC(=O)c1cn(CCCCc2ccccc2)c2ccccc2c1=O` [RDS1980, 4-[1-(4-Phenylbutyl)-1,4-dihydro-4-oxoquinolin-3-yl]-2,4-dioxobutanoic acid ethyl ester], 88 to 90 °C; as for `O=C(O)C(=O)CC(=O)c1cn(CCCCc2ccccc2)c2ccccc2c1=O` [RDS1981, 4-[1-(4-Phenylbutyl)-1,4-dihydro-4-oxoquinolin-3-yl]-2,4-dioxobutanoic acid], 136 to 138 °C.

Consider `CCOC(=O)C(=O)CC(=O)c1cn(Cc2c(F)cccc2F)c2ccccc2c1=O` [RDS1983, 4-[1-(2,6-Difluorophenyl)methyl-1,4-dihydro-4-oxoquinolin-3-yl]-2,4-dioxobutanoic acid ethyl ester], for which the melting point lay in the range of 172 to 173 °C. `O=C(O)C(=O)CC(=O)c1cn(Cc2c(F)cccc2F)c2ccccc2c1=O` [RDS1984, 4-[1-(2,6-Difluorophenyl)methyl-1,4-dihydro-4-oxoquinolin-3-yl]-2,4-dioxobutanoic acid] returned a melting point of 171 to 172 °C. Compound `CCOC(=O)C(=O)CC(=O)c1cn(Cc2cccc(F)c2)c2ccccc2c1=O` [RDS1986, 4-[1-(3-Fluorophenyl)methyl-1,4-dihydro-4-oxoquinolin-3-yl]-2,4-dioxobutanoic acid ethyl ester] had a melting point of 174 to 175 °C. Compound `O=C(O)C(=O)CC(=O)c1cn(Cc2cccc(F)c2)c2ccccc2c1=O` [RDS1987, 4-[1-(3-Fluorophenyl)methyl-1,4-dihydro-4-oxoquinolin-3-yl]-2,4-dioxobutanoic acid] registered a melting point of 158 to 159 °C. As for `CCOC(=O)C(=O)CC(=O)c1cn(Cc2ccccc2F)c2ccccc2c1=O` [RDS1989, 4-[1-(2-Fluorophenyl)methyl-1,4-dihydro-4-oxoquinolin-3-yl]-2,4-dioxobutanoic acid ethyl ester], the figure is 152 to 153 °C; as for `O=C(O)C(=O)CC(=O)c1cn(Cc2ccccc2F)c2ccccc2c1=O` [RDS1990, 4-[1-(2-Fluorophenyl)methyl-1,4-dihydro-4-oxoquinolin-3-yl]-2,4-dioxobutanoic acid], 172 to 174 °C. Compound `CCOC(=O)C(=O)CC(=O)c1cn(Cc2ccccc2)c2ccccc2c1=O` [RDS1992, 4-(1-Phenylmethyl-1,4-dihydro-4-oxoquinolin-3-yl)-2,4-dioxobutanoic acid ethyl ester] yielded a melting point of 141 to 142 °C. Compound `O=C(O)C(=O)CC(=O)c1cn(Cc2ccccc2)c2ccccc2c1=O` [RDS1993, 4-(1-Phenylmethyl-1,4-dihydro-4-oxoquinolin-3-yl)-2,4-dioxobutanoic acid] registered a melting point of 141 to 142 °C.

`CCOC(=O)C(=O)CC(=O)c1cn(Cc2ccc3ccccc3n2)c2ccccc2c1=O` [RDS1999, 4-[1-(2-Quinolinyl)methyl-1,4-dihydro-4-oxoquinolin-3-yl]-2,4-dioxobutanoic acid ethyl ester] came in with a melting point of 237 to 238 °C. Compound `O=C(O)C(=O)CC(=O)c1cn(Cc2ccc3ccccc3n2)c2ccccc2c1=O` [RDS2000, 4-[1-(2-Quinolinyl)methyl-1,4-dihydro-4-oxoquinolin-3-yl]-2,4-dioxobutanoic acid] came in with a melting point above 300 °C.

Compound `CCOC(=O)C(=O)CC(=O)c1cn(Cc2ccc(Cl)cc2)c2ccccc2c1=O` [RDS2011, 4-[1-(4-Chlorophenyl)methyl-1,4-dihydro-4-oxoquinolin-3-yl]-2,4-dioxobutanoic acid ethyl ester] registered a melting point of 174 to 176 °C. Take `O=C(O)C(=O)CC(=O)c1cn(Cc2ccc(Cl)cc2)c2ccccc2c1=O` [RDS2012, 4-[1-(4-Chlorophenyl)methyl-1,4-dihydro-4-oxoquinolin-3-yl]-2,4-dioxobutanoic acid]: the melting point lay in the range of 177 to 179 °C. `CCOC(=O)C(=O)CC(=O)c1cn(Cc2ccc([N+](=O)[O-])cc2)c2ccccc2c1=O` [RDS2017, 4-[1-(4-Nitrophenyl)methyl-1,4-dihydro-4-oxoquinolin-3-yl]-2,4-dioxobutanoic acid ethyl ester] returned a melting point of 175 to 176 °C. `O=C(O)C(=O)CC(=O)c1cn(Cc2ccc([N+](=O)[O-])cc2)c2ccccc2c1=O` [RDS2018, 4-[1-(4-Nitrophenyl)methyl-1,4-dihydro-4-oxoquinolin-3-yl]-2,4-dioxobutanoic acid] registered a melting point of 230 to 232 °C.

Regarding `CCOC(=O)C(=O)CC(=O)c1cn(Cc2ccc(F)cc2)c2cc(F)ccc2c1=O` [RDS2021, 4-[1-(4-Fluorophenyl)methyl-7-fluoro-1,4-dihydro-4-oxoquinolin-3-yl]-2,4-dioxobutanoic acid ethyl ester], the melting point was in the range of 151 to 152 °C. `O=C(O)C(=O)CC(=O)c1cn(Cc2ccc(F)cc2)c2cc(F)ccc2c1=O` [RDS2022, 4-[1-(4-Fluorophenyl)methyl-7-fluoro-1,4-dihydro-4-oxoquinolin-3-yl]-2,4-dioxobutanoic acid]: the melting point fell in the range of 162 to 163 °C. As for `CCOC(=O)C(=O)CC(=O)c1cn(Cc2ccc(OC)cc2)c2ccccc2c1=O` [RDS2034, 4-[1-(4-Methoxyphenyl)methyl-1,4-dihydro-4-oxoquinolin-3-yl]-2,4-dioxobutanoic acid ethyl ester], the figure is 154 to 156 °C. Regarding `COc1ccc(Cn2cc(C(=O)CC(=O)C(=O)O)c(=O)c3ccccc32)cc1` [RDS2035, 4-[1-(4-Methoxyphenyl)methyl-1,4-dihydro-4-oxoquinolin-3-yl]-2,4-dioxobutanoic acid], the melting point was in the range of 149 to 150 °C. As for `CCOC(=O)C(=O)CC(=O)c1cn(Cc2ccc(F)cc2)c2ccc(F)cc2c1=O` [RDS2077, 4-[1-(4-Fluorophenyl)methyl-6-fluoro-1,4-dihydro-4-oxoquinolin-3-yl]-2,4-dioxobutanoic acid ethyl ester], the figure is 152 to 153 °C; as for `O=C(O)C(=O)CC(=O)c1cn(Cc2ccc(F)cc2)c2ccc(F)cc2c1=O` [RDS2078, 4-[1-(4-Fluorophenyl)methyl-6-fluoro-1,4-dihydro-4-oxoquinolin-3-yl]-2,4-dioxobutanoic acid], 183 to 184 °C.

Broadly, the melting point is the temperature, or range, at which the solid turns liquid.

The values above are taken from US7776883B2, “Quinolin-4-ones as inhibitors of retroviral integrase for the treatment of HIV, AIDS and AIDS related complex (ARC)” (The United States of America as represented by the …, priority 2004, dated 2010).
